Laboratory results taken from article PMC11855827, “High-Throughput Screening of Five Compound Libraries for Anthelmintic Activity and Toxicity Leads to the Discovery of Two Flavonoid Compounds” (International Journal of Molecular Sciences, 2025).
Several values for one entry are separate records, joined by “and”; a condition that tells them apart may be missing. Equal values may be shown once. Read-outs that look alike come from different tables or passages of the source. Where a SMILES comes first, the peptide text is derived from it.

Tested on: C. elegans
[1] = Table S2, C. elegans SS assay, 110 μM, 0 h, averages of 4 data points
[2] = Table S2, C. elegans SS assay, 110 μM, 24 h, averages of 4 data points

| Compound | Percentage of motility inhibition 0 h [1] | Percentage of motility inhibition 24 h [2] | further results |
| --- | --- | --- | --- |
| CCCCCCCC/C=C\CCCCCCCC(=O)[O-].[Na+] [Sodium oleate] | 0% | 0% |  |
| COc1ccc(-c2oc3c(CC=C(C)C)c(O[C@@H]4O[C@H](CO)[C@@H](O)[C@H](O)[C@H]4O)cc(O)c3c(=O)c2O[C@@H]2O[C@@H](C)[C@H](O)[C@@H](O)[C@H]2O[C@@H]2OC[C@@H](O)[C@H](O)[C@H]2O)cc1 [Epimedin B] | 15% | 32% |  |
| CC[C@]1(O)C[C@@H]2CN(CCc3c([nH]c4ccccc34)[C@@](C(=O)OC)(c3cc4c(cc3OC)N(C)[C@H]3[C@@](O)(C(=O)OC)[C@H](OC(C)=O)[C@]5(CC)C=CCN6CC[C@]43[C@@H]65)C2)C1.O=S(=O)(O)O [Vinblastine (sulfate)] | 0% and 8% | 0% and 1% |  |
| CC(C)=CCc1c(-c2ccc(O)cc2O)oc2c(CC=C(C)C)c(O)cc(O)c2c1=O [Mulberrin] | 32% | 5% |  |
| C=C(C(=O)O)[C@H]1CC[C@H](C)[C@@H]2CC(=O)C(C)=C2C1 [Rupestonic acid] | 0% | 8% |  |
| COc1cc2c(=O)c(-c3ccc(O)cc3)coc2cc1O[C@@H]1O[C@H](COC(C)=O)[C@@H](O)[C@H](O)[C@H]1O [6''‐O‐Acetylglycitin] | 4% | 5% |  |
| Cl.c1cc2c(c3c1CC1c4cc5c(cc4CCN1C3)OCO5)OCO2 (racemic) [(±)‐Stylopine (hydrochloride)] | 0% | 3% |  |
| CC[C@H]1CN2CC[C@H]1C[C@@H]2[C@@H](O)c1ccnc2ccc(OC)cc12 [Hydroquinidine] | 29% and 50% |  |  |
| C[N+](C)(CCOc1ccccc1)Cc1ccccc1.O=C([O-])c1cc2ccccc2cc1O [Bephenium (hydroxynaphthoate)] | 12% | 5% |  |
| O=Cc1c[nH]c2ccccc12 [Indole‐3‐carboxaldehyde] | 0% | 17% |  |
| O=c1cc(-c2ccccc2)oc2cc(O[C@@H]3O[C@H](CO)[C@@H](O)[C@H](O)[C@H]3O)c(O)c(O)c12 [Oroxin A] | 0% | 1% |  |
| COc1cc(-c2coc3cc(O[C@@H]4O[C@H](CO)[C@@H](O)[C@H](O)[C@H]4O)c(OC)c(O)c3c2=O)ccc1O [Iristectorin B] | 5% | 6% |  |
| CC1(C)CC[C@]2(C(=O)O[C@@H]3O[C@H](CO)[C@@H](O)[C@H](O)[C@H]3O)[C@H](O)C[C@]3(C)C(=CC[C@@H]4[C@@]5(C)CC[C@H](O[C@@H]6O[C@H](CO)[C@@H](O)[C@H](O)[C@H]6O)C(C)(C)[C@@H]5CC[C@]43C)[C@@H]2C1 [Eclalbasaponin I] | 35% | 35% |  |
| O=C(O[C@H]1Cc2c(O)cc(O)cc2O[C@@H]1c1ccc(O)c(O)c1)c1cc(O)c(O)c(O)c1 [(‐)‐Catechin gallate] | 3% | 0% |  |
| CC(C)=CCC[C@@H](C)CCO [(R)-Citronellol] | 1% | 14% |  |
| C=C(CCC(C(=O)O)[C@H]1[C@H](O)C[C@@]2(C)C3=CC[C@H]4C(C)(C)[C@@H](OC(C)=O)CC[C@]4(C)C3=CC[C@]12C)C(C)C (some centres unmarked) [Dehydropachymic acid] | 29% | 35% |  |
| COc1ccc(-c2cc(=O)c3c(O)cc(O[C@@H]4O[C@H](CO)[C@@H](O)[C@H](O)[C@H]4O)cc3o2)cc1O [Diosmetin‐7‐O‐β‐D‐glucopyranoside] | 53% | 10% |  |
| CC(=O)O[C@@]1(C)C[C@@H](O)[C@]2(O)C=CO[C@@H](O[C@@H]3O[C@H](CO)[C@@H](O)[C@H](O)[C@H]3O)[C@@H]21 [8-O-Acetylharpagide] | 10% | 29% |  |
| COc1cc(-c2oc3cc(O)cc(O)c3c(=O)c2O[C@@H]2O[C@H](CO)[C@@H](O)[C@H](O)[C@H]2O[C@@H]2O[C@@H](C)[C@H](O)[C@@H](O)[C@H]2O)ccc1O [Isorhamnetin‐3‐O‐neohespeidoside] | 45% | 5% |  |
| COc1ccc(CCC(=O)c2ccc(O)cc2)c(OC)c1 [Loureirin A] | 11% | 0% |  |
| CC(C)(C)C(=O)OCOC(=O)[C@@H]1N2C(=O)[C@@H](N=CN3CCCCCC3)[C@H]2SC1(C)C.Cl [Pivmecillinam (hydrochloride)] | 12% | 0% |  |

| Compound | Percentage of motility inhibition 0 h [1] | Percentage of motility inhibition 24 h [2] | further results |
| --- | --- | --- | --- |
| CC[C@]1(O)C[C@H]2CN(CCc3c([nH]c4ccccc34)[C@@](C(=O)OC)(c3cc4c(cc3OC)N(C=O)[C@H]3[C@@](O)(C(=O)OC)[C@H](OC(C)=O)[C@]5(CC)C=CCN6CC[C@]43[C@@H]65)C2)C1.O=S(=O)(O)O [Vincristine (sulfate)] | 0% | 0% and 7% |  |
| NCC(=O)O [Glycine] |  |  | Percentage of motility inhibition 0 h (110 µM): 32%; Percentage of motility inhibition 24 h (110 µM): 13% |
| COC(=O)N[C@H](C(=O)N[C@@H](Cc1ccccc1)[C@@H](O)CN(Cc1ccc(-c2ccccn2)cc1)NC(=O)[C@@H](NC(=O)OC)C(C)(C)C)C(C)(C)C.O=S(=O)(O)O [Atazanavir (sulfate)] | 3% | 4% |  |
| COc1ccc(CC2c3cc(OC)c(OC)cc3CCN2C)cc1OC (stereo not drawn) [DL‐Laudanosine] | 7% | 12% |  |
| CN[C@@H]1[C@H](O)[C@H](NC)[C@H]2O[C@@]3(O)C(=O)C[C@@H](C)O[C@H]3O[C@@H]2[C@H]1O.Cl.Cl [Spectinomycin (dihydrochloride)] | 0% | 1% |  |
| NCCCC[C@H](NC(=O)[C@H](Cc1c[nH]c2ccccc12)NC(=O)[C@@H](N)CCCCN)C(=O)O [H‐Lys‐Trp‐Lys‐OH] (H-Lys-Trp-Lys-OH) |  |  | Percentage of motility inhibition 0 h (0 h, 110 μM): 55%; Percentage of motility inhibition 24 h (24 h, 110 µM): 10% |
| Hydrastinine (hydrochloride) | 7% | 0% |  |
| CC(C)=CCC[C@](C)(O)[C@H]1CC[C@]2(C)[C@@H]1[C@H](O)C[C@@H]1[C@@]3(C)CC[C@H](O)C(C)(C)[C@@H]3CC[C@]12C [(20S)-Protopanaxadiol] | 21% | 10% |  |
| CC(C)=CCC[C@](C)(O[C@@H]1O[C@H](CO[C@@H]2OC[C@@H](O)[C@H](O)[C@H]2O)[C@@H](O)[C@H](O)[C@H]1O)[C@H]1CC[C@]2(C)[C@@H]1[C@H](O)C[C@@H]1[C@@]3(C)CC[C@H](O[C@@H]4O[C@H](CO)[C@@H](O)[C@H](O)[C@H]4O[C@@H]4O[C@H](CO)[C@@H](O)[C@H](O)[C@H]4O[C@@H]4OC[C@@H](O)[C@H](O)[C@H]4O)C(C)(C)[C@@H]3CC[C@]12C [Notoginsenoside Fc] | 0% | 0% |  |
| COC(=O)C1=CO[C@@H](O[C@@H]2O[C@H](CO)[C@@H](O)[C@H](O)[C@H]2O)[C@@H]2[C@@]3(C)O[C@H]3[C@@H](O)[C@]12O [Sesamoside] | 4% | 25% |  |
| Harpagide | 9% | 13% |  |
| NC(=O)[C@@H]1CC[C@@H]2CN1C(=O)N2OS(=O)(=O)[O-].[Na+] [Avibactam (sodium)] | 0% | 8% |  |
| C[C@H](CC[C@@H](O[C@@H]1O[C@H](CO[C@@H]2O[C@H](CO)[C@@H](O)[C@H](O)[C@H]2O)[C@@H](O)[C@H](O)[C@H]1O)C(C)(C)O)[C@H]1CC[C@@]2(C)[C@@H]3CC=C4[C@@H](CC[C@H](O[C@@H]5O[C@H](CO[C@@H]6O[C@H](CO)[C@@H](O)[C@H](O)[C@H]6O)[C@@H](O)[C@H](O)[C@H]5O)C4(C)C)[C@]3(C)[C@H](O)C[C@]12C [Mogroside IV-A] | 0% | 0% |  |
| Phytol | 13% | 5% |  |
| COc1ccc([C@@H]2CC(=O)c3c(O)cc(O[C@@H]4O[C@H](CO)[C@@H](O)[C@H](O)[C@H]4O[C@@H]4O[C@@H](C)[C@H](O)[C@@H](O)[C@H]4O)cc3O2)cc1O [Neohesperidin] | 14% | 0% |  |
| CC(=O)O.CC(=O)O.CC[C@H](C)C[C@H](C)CCCCCCCCC(=O)N[C@H]1C[C@@H](O)[C@@H](NCCN)NC(=O)[C@@H]2[C@@H](O)CCN2C(=O)[C@H]([C@H](O)CCN)NC(=O)[C@H]([C@H](O)[C@@H](O)c2ccc(O)cc2)NC(=O)[C@@H]2C[C@@H](O)CN2C(=O)[C@H]([C@@H](C)O)NC1=O [Caspofungin (Acetate)] | 27% | 4% |  |
| CC(=O)O[C@H]1C(=O)[C@@]2(C)[C@H]([C@H](OC(=O)c3ccccc3)[C@]3(O)C[C@H](OC(=O)[C@H](O)[C@@H](NC(=O)c4ccccc4)c4ccccc4)C(C)=C1C3(C)C)[C@]1(OC(C)=O)CO[C@@H]1C[C@@H]2O [Paclitaxel] | 18% and 29% | 12% and 23% |  |
| COC(=O)C1=COC(O[C@@H]2O[C@H](CO)[C@@H](O)[C@H](O)[C@H]2O)/C(=C/C(=O)O)C1CC(=O)OCCc1ccc(O)cc1 (some centres unmarked) [Ligustrosidic acid] | 3% | 24% |  |
| C[C@@H]1O[C@@H]1P(=O)([O-])[O-].[Ca+2] [Fosfomycin (calcium)] | 4% | 0% |  |
| O=c1cccc2n1C[C@@H]1CNC[C@H]2C1 [Cytisinicline] |  |  | Percentage of motility inhibition 24 h (110 µM): 0% and 3% |
